Measurements taken from ChEMBL document CHEMBL4033619, “Autophagy antagonizes apoptosis induced by flavan enantiomers from Daphne giraldii in hepatic carcinoma cells in vitro” (Eur J Med Chem, 2017).

Experiments:
Type in all cases: functional, cell-based
[1] = test system: MCF7; assay: Growth inhibition of human MCF7 cells after 48 hrs by MTT assay
[2] = test system: A549; assay: Growth inhibition of human A549 cells after 48 hrs by MTT assay
[3] = test system: Hep 3B2; assay: Cytotoxicity against human Hep3B cells by MTT assay
[4] = test system: Hep 3B2; assay: Growth inhibition of human Hep3B cells after 48 hrs by MTT assay
[5] = test system: HepG2; assay: Cytotoxicity against human HepG2 cells by MTT assay
[6] = test system: HepG2; assay: Growth inhibition of human HepG2 cells after 48 hrs by MTT assay
[7] = test system: A549; assay: Cytotoxicity against human A549 cells by MTT assay
[8] = test system: MCF7; assay: Cytotoxicity against human MCF7 cells by MTT assay

SMILES | growth inhibition (GI) [1] | growth inhibition (GI) [2] | IC50 [3] | growth inhibition (GI) [4] | IC50 [5] | growth inhibition (GI) [6] | IC50 [7] | IC50 [8]
CC(C)=CCc1c(C2CCc3ccc(O)cc3O2)cc2c(c1O)OC(C)(C)C=C2 (racemic) | Dose-dependent effect | Dose-dependent effect | 97.8 µM | Dose-dependent effect | 92.3 µM | Dose-dependent effect | 92.5 µM | > 100 µM
CC1(C)CCc2c([C@@H]3CCc4ccc(O)cc4O3)ccc(O)c2O1 | Dose-dependent effect | Dose-dependent effect | 44.7 µM | Dose-dependent effect | > 100 µM | Dose-dependent effect | > 100 µM | > 100 µM
CC(C)=CCc1c([C@H]2CCc3ccc(O)cc3O2)ccc(O)c1O [KAZINOL U] | Dose-dependent effect | Dose-dependent effect | 51.1 µM | Dose-dependent effect | > 100 µM | Dose-dependent effect | > 100 µM | > 100 µM
CC(C)=CCc1c([C@@H]2CCc3ccc(O)cc3O2)ccc(O)c1O | Dose-dependent effect | Dose-dependent effect | 62.2 µM | Dose-dependent effect | > 100 µM | Dose-dependent effect | > 100 µM | > 100 µM
CC1(C)C=Cc2c([C@@H]3CCc4ccc(O)cc4O3)ccc(O)c2O1 | Dose-dependent effect | Dose-dependent effect | 75.7 µM | Dose-dependent effect | > 100 µM | Dose-dependent effect | > 100 µM | > 100 µM
CC(C)=CCc1c(C2CCc3ccc(O)cc3O2)ccc(O)c1O (racemic) | Dose-dependent effect | Dose-dependent effect | 81.2 µM | Dose-dependent effect | > 100 µM | Dose-dependent effect | > 100 µM | > 100 µM
O=c1[nH]cc(F)c(=O)[nH]1 [FLUOROURACIL] |  |  | 11.9 µM |  | 32.6 µM |  |  | 30 µM
